Results taken from PMC8837113, “Drug Repurposing of the Unithiol: Inhibition of Metallo-β-Lactamases for the Treatment of Carbapenem-Resistant Gram-Negative Bacterial Infections” (International Journal of Molecular Sciences, 2022).

Tests used:
[1] = target: T1, metallo-β-lactamase VIM-2 (Pseudomonas aeruginosa, UniProt Q9K2N0); experiment: kinetic inhibition assay in periplasmic fractions (Figure S1); disk diffusion and MIC support; type: cell-based
T1 construct: gene blaVIM-2; active mature VIM-2 in periplasmic fractions of P. aeruginosa strains B-730P/17 and B-2099/18

[2] = target: T2, metallo-β-lactamase NDM-1 (Klebsiella pneumoniae, UniProt C7C422); experiment: meropenem hydrolysis kinetics, Lineweaver–Burk (spectrophotometric, […] nm); type: biochemical
T2 construct: gene blaNDM-1; recombinant NDM-1, purified from the periplasmic fraction of E. coli BL21(DE3) (pET-NDM)
T2 sequence (C7C422 29-270 limits assumed): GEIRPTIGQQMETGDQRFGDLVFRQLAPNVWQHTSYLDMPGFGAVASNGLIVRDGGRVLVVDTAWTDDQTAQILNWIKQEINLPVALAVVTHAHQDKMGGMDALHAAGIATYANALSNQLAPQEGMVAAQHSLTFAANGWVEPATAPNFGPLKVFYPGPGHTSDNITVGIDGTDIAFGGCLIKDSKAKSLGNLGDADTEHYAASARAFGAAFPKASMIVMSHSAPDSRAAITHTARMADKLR

In the case of `O=S(=O)(O)CC(S)CS` (centres unmarked) [compound 2, 2,3-dimercaptopropane-1-sulfonate], the “kinetic inhibition assay in periplasmic fractions (Figure S1); disk diffusion an” value [1] is reported as “A noticeable dose-dependent inhibitory effect of unithiol (Figure S1) was observed for the two strains studied” and the Ki [2] is reported as 16.7 ± 1.2 µM.
